The IC50 is the concentration that inhibits the measured activity by half.

In this experiment the target is CCK receptor. Put plainly: 125I-CCK-33 receptor binding assay. Conditions: tissue not stated for the values (methods given for rat pancreas and guinea pig brain cortex membranes); read-out: IC50, inhibition of specific 125I-CCK-33 binding. On the procedure:
CCK-33 was radiolabeled with […] (2000 Ci/mmole) as described by Sankara et al. [J. Biol. Chem. 254: 9349-9351, (1979)]. Receptor binding was performed according to Innis and Snyder [Proc. Natl. Acad. Sci. 77: 6917-6921, (1980)] with the minor modification of adding the additional protease inhibitors, phenylmethane sulfonyl fluoride and o-phenanthroline. The latter two compounds have no effect on the ^125I-CCK receptor binding assay.
Male Sprague-Dawley rats (200-350g) were sacrificed by decapitation. The whole pancreas was dissected free of fat tissue and was homogenized in 20 volumes of ice-cold 50 mM, Tris HC1 (pH 7.7 at 25°C) with a Brinkman Polytron PT 10. The homogenates were centrifuged at 48,000 g for 10 min. Pellets were resuspended in Tris Buffer, centrifuged as above and resuspended in 200 volumes of binding assay buffer (50 mM Tris HC1, pH 7.7 at 25°C, 5 mM dithiothriethel, 0.1 mM bacitracin, 1.2 mM phenylmethane sulfonyl fluoride and 0.5 mM o-phenanthroline). For the binding assay, 25 µl of buffer (for total binding) or unlabeled CCK-8 sulfate to give a final concentration of luM (for nonspecific binding) or the compounds of Formula 1 (for determination inhibition of 125I-CCR binding) and 25 µl of 125I-CCK-33 (30,000-40,000 cpm) were added to 450 µl of the membrane suspensions in microfuge tubes. All assays were run in duplicate or triplicate. The reaction mixtures were incubated at 37°C for 30 minutes and centrifuged in a Beckman Microfuge (4 minutes) immediately after adding 1 ml of ice-cold incubation buffer. The supernatant was aspirated and discarded, pellets were counted with a Beckman gamma 5000.
CCK-33 was radiolabeled with and the binding was performed according to the description for the pancreas method with modifications according to Saito, et al. (J. Neurochem, 37, 483-490 (1981)).
Hall Hartley guinea pigs (300-500 g) were sacrificed by decapitation and the brains were removed and placed in ice-cold 50 mM, Tris HC1 plus 7.58 g/1 Tritma-7.4 (pH 7.4 at 25°C) Cerebral cortex was dissected and used as a receptor source. Each gram of fresh guinea pig brain tissue was homogenized in 10 ml of Tris/Trizma buffer with a Brinkman polytron PT-10. The homogenates were centrifuged at 42,000 g for 15 minutes. Pellets were resuspended in Tris Buffer, centrifuged as above and resuspended in 200 volumes of binding assay buffer (10 mM HEPES, pH 7.7 at 25°C, 5 mM Mg C12, […], 0.4% BSA (bovine serum albumin) and 0.25 mg/ml bacitracin). For the binding assay, 25 µl of buffer (for total binding) or unlabeled CCK-8 sulfate to give a final concentration of 1µM (for nonspecific binding) or the compounds of Formula 1 (for determination inhibition of ^125I-CCK binding) and 25 µl of ^125I-CCK-33 (30,00-40,000 cpm) were added to 450 µl of the membrane suspensions in microfuge tubes. All assays were run in duplicate or triplicate. The reaction mixtures were incubated at 25°C for 2 hours and centrifuged in a Beckman Microfuge (4 minutes) immedidately after adding 1 ml of ice-cold incubation buffer. The supernatant was aspirated and discarded, pellets were counted with a Beckman gamma 5000.
As to `CC(C)(C)OC(=O)CN1C(=O)C(NC(=O)[C@H](Cc2c[nH]c3ccccc23)NC(=O)OCc2ccccc2)CCc2ccccc21` (single isomer, unassigned) [l-t-Butoxycarbonylmethyl-3(-L-N-carbobenzyloxytrypto- phanyl)aminohomodihydrocarbostyril], the 50% inhibitory concentration (IC50) is 1200 nM.
The value for `COC(=O)CN1C(=O)C(NCc2c[nH]c3ccccc23)CCc2ccccc21` (racemic) [l-Carbomethoxymethyl-3-(3-indolemethyl)amino homodihydrocarboxtyril] was 15000 nM; that for `CC(=O)N[C@H](Cc1c[nH]c2ccccc12)C(=O)NC1CCc2ccccc2N(CC(=O)OC(C)(C)C)C1=O` (single isomer, unassigned) [1-t-Butoxycarbonylmethyl-3-(D-N-acetyltryptophanyl)-aminohomodihydrocarbostyril] was 1600 nM.
The value for `CCOC(=O)C(CCc1ccccc1)NC1CCc2ccccc2N(C)C1=O` (single isomer, unassigned) [1-Methyl-3-(1-Carboethoxy-3-phenyl-1-propyl) aminohomodihydrocarbostyril] was 60000 nM; that for `CC(=O)N[C@@H](Cc1c[nH]c2ccccc12)C(=O)NC1CCc2ccccc2N(CC(=O)OC(C)(C)C)C1=O` (single isomer, unassigned) [l-t-Butoxycarbonylmethyl-3-(L-N-acetyltryptophanyl)-aminohomodihydrocarbostyril] was 2800 nM.
